# Test results from US20240158385A1, “NOVEL COMPOUNDS” (Cerevance, Inc., priority 2021, published 2024).
# Target: T1, human KCNK13 (Homo sapiens, UniProt Q9HB14)
# T1 construct: expressed in transfected cells
# T1 sequence (Q9HB14 1-408): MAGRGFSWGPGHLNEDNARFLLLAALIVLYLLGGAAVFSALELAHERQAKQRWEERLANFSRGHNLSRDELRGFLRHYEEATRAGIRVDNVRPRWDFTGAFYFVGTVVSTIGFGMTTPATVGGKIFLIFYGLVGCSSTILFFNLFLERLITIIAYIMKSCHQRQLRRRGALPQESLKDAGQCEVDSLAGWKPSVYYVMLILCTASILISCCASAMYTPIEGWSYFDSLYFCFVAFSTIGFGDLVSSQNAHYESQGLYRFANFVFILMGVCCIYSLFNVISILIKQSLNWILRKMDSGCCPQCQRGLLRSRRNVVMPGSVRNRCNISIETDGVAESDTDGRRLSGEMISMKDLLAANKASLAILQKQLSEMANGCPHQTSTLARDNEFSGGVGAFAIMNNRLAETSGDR
# Assay: KCNK13 antagonist activity, thallium (Tl+) flux FLIPR assay
# Format: cell-based
# Conditions: HEK 293 cells stably expressing human KCNK13; Tl+ sensitive dye, FLIPR; compounds 15 minutes prior to thallium sulfate; 10 point half log curves from 10 PM; read-out: hKCNK13 IC50
# Procedure: KCNK13 antagonist activity was determined by measuring changes in intracellular Thallium (Tl^+) concentrations using a Tl^+ sensitive fluorescent dye. The changes in fluorescent signal were monitored by Fluorescent Imaging Plate Reader (FLIPR™) technology available from Molecular Devices, LLC, US. KCNK13 mediated increases in intracellular Tl+concentration were readily detected by addition of a thallium sulfate stimulus. 24 hours prior to the assay, human embryonic kidney 293 cells (HEK 293 cells) stably expressing human KCNK13 were seeded in cell culture medium in PDL coated black, clear-bottom 384-well plates (commercially available from Corning Inc., 356663) and grown overnight at 37° C., 5% CO2. On the day of the assay, cell culture media was removed and cells were loaded with potassium dye (commercially sold by Molecular Devices, LLC, US, R8222) for 1 hour at room temperature in the dark. Test compounds (at 10 point half log concentration response curves from […]) were added to cells for 15 minutes prior to the addition of thallium sulfate to all wells. The IC50 values were determined from ten point concentration response curves. Curves were generated using the average of two wells for each data point.
row,Compound,IC50 [nM]
1,"Cc1nonc1-c1nc2cccc(F)c2n1Cc1ccc(C#N)nc1 [Example 52, 5-[[7-fluoro-2-(4-methyl-1,2,5-oxadiazol-3-yl)benzimidazol-1-yl]methyl]pyridine-2-carbonitrile]",< 100
2,"Cc1nonc1-c1nc2cccnc2n1Cc1cnc(C#N)nc1 [Example 165, 5-((2-(4-methyl-1,2,5-oxadiazol-3-yl)-3H-imidazo[4,5-b]pyridin-3-yl)methyl)pyrimidine-2-carbonitrile]",< 100
3,"COc1cc(Cn2c(-c3nonc3N)nc3c(F)cccc32)ccn1 (single isomer, unassigned) [Example 184, 4-(4-fluoro-1-((2-methoxypyridin-4-yl)methyl)-benzimidazol-2-yl)-1,2,5-oxadiazol-3-amine]",< 100
4,"Cc1cccc(Cn2c(-c3nonc3C)nc3ccccc32)n1 [Example 78, 3-methyl-4-[1-[(6-methylpyridin-2-yl)methyl]benzimidazol-2-yl]-1,2,5-oxadiazole]",< 500
5,"CSc1ccc(Cn2c(-c3nonc3C)nc3ccccc32)cn1 [Example 181, 3-methyl-4-(1-((6-(methylthio)pyridin-3-yl)methyl)-benzimidazol-2-yl)-1,2,5-oxadiazole]",< 500
6,"CNc1nsnc1-c1nc2ccccc2n1Cc1cccnc1 [Example 96, N-methyl-4-[1-(pyridin-3-ylmethyl)benzimidazol-2-yl]-1,2,5-thiadiazol-3-amine]",< 100
7,"Nc1nonc1-c1nc2cc(F)ccc2n1Cc1cccnc1 (single isomer, unassigned) [Example 119, 4-[5-fluoro-1-(pyridin-3-ylmethyl)benzimidazol-2-yl]-1,2,5-oxadiazol-3-amine]",< 50
8,"c1coc(-c2nc3ccccc3n2Cc2ccncc2)c1 [Example 117, 2-(furan-2-yl)-1-(pyridin-4-ylmethyl)benzimidazole]",< 1000
9,"Cc1nonc1-c1nc2ccccc2n1Cc1ncccc1F [Example 82, 3-[1-[(3-fluoropyridin-2-yl)methyl]benzimidazol-2-yl]-4-methyl-1,2,5-oxadiazole]",< 1000
10,"Nc1nonc1-c1nc2cc(F)ccc2n1Cc1ccncc1 [Example 92, 4-[5-fluoro-1-(pyridin-4-ylmethyl)benzimidazol-2-yl]-1,2,5-oxadiazol-3-amine]",< 50
11,"Nc1nonc1-c1nc2cccc(F)c2n1Cc1cccnn1 [Example 6, 4-[7-fluoro-1-(pyridazin-3-ylmethyl)benzimidazol-2-yl]-1,2,5-oxadiazol-3-amine]",< 100
12,"Cc1nonc1-c1nc2c(F)ccc(F)c2n1Cc1cccnc1 [Example 65, 3-[4,7-difluoro-1-(pyridin-3-ylmethyl)benzimidazol-2-yl]-4-methyl-1,2,5-oxadiazole]",< 50
13,"N#Cc1ccc(Cn2c(-c3nonc3N)nc3cccc(F)c32)nn1 (single isomer, unassigned) [Example 174, 6-((2-(4-amino-1,2,5-oxadiazol-3-yl)-7-fluoro-benzimidazol-1-yl)methyl)pyridazine-3-carbonitrile]",< 100
14,"Brc1nsnc1-c1nc2ccccc2n1Cc1cccnc1 [Example 126, 3-bromo-4-(1-(pyridin-3-ylmethyl)benzimidazol-2-yl)-1,2,5-thiadiazole]",< 100
15,"Cc1conc1-c1nc2ccccc2n1Cc1cccnc1 [Example 104, 4-methyl-3-[1-(pyridin-3-ylmethyl)benzimidazol-2-yl]isoxazole]",< 200
16,"Nc1nonc1-c1nc2c(F)cccc2n1Cc1cccnn1 [Example 179, 4-(4-fluoro-1-(pyridazin-3-ylmethyl)-benzimidazol-2-yl)-1,2,5-oxadiazol-3-amine]",< 200
17,"Cc1nonc1-c1nc2cccc(F)c2n1Cc1cnc(C#N)cn1 [Example 41, 5-[[7-fluoro-2-(4-methyl-1,2,5-oxadiazol-3-yl)benzimidazol-1-yl]methyl]pyrazine-2-carbonitrile]",< 100
18,"Cc1nonc1-c1nc2cccnc2n1Cc1ccc(C(F)(F)F)nc1 [Example 17, 3-methyl-4-[3-[[6-(trifluoromethyl)pyridin-3-yl]methyl]imidazo[4,5-b]pyridin-2-yl]-1,2,5-oxadiazole]",< 500
19,"N#Cc1ccc(Cn2c(-c3nonc3N)nc3c(F)cccc32)nn1 (single isomer, unassigned) [Example 175, 6-((2-(4-amino-1,2,5-oxadiazol-3-yl)-4-fluoro-benzimidazol-1-yl)methyl)pyridazine-3-carbonitrile]",< 200

row,Compound,IC50 [nM]
1,"Nc1nonc1-c1nc2c(F)ccc(F)c2n1Cc1cccnc1 [Example 22, 4-[4,7-difluoro-1-(pyridin-3-ylmethyl)benzimidazol-2-yl]-1,2,5-oxadiazol-3-amine]",< 50
2,"Nc1nonc1-c1nc2cccnc2n1Cc1cccnc1 [Example 59, 4-[3-(pyridin-3-ylmethyl)imidazo[4,5-b]pyridin-2-yl]-1,2,5-oxadiazol-3-amine]",< 200
3,"Fc1nsnc1-c1nc2ccccc2n1Cc1cccnc1 [Example 108, 3-fluoro-4-[1-(pyridin-3-ylmethyl)benzimidazol-2-yl]-1,2,5-thiadiazole]",< 500
4,"Cc1nonc1-c1nc2c(F)cccc2n1Cc1ccc(C#N)nc1 [Example 40, 5-[[4-fluoro-2-(4-methyl-1,2,5-oxadiazol-3-yl)benzimidazol-1-yl]methyl]pyridine-2-carbonitrile]",< 100
5,"Cc1nonc1-c1nc2ccc(F)c(F)c2n1Cc1cccnn1 (single isomer, unassigned) [Example 170, 3-(6,7-difluoro-1-(pyridazin-3-ylmethyl)-benzimidazol-2-yl)-4-methyl-1,2,5-oxadiazole]",< 100
6,"Nc1nonc1-c1nc2ccc(F)cc2n1Cc1cccnc1 (single isomer, unassigned) [Example 118, 4-[6-fluoro-1-(pyridin-3-ylmethyl)benzimidazol-2-yl]-1,2,5-oxadiazol-3-amine]",< 50
7,"Nc1nonc1-c1nc2cccc(F)c2n1Cc1cncnc1 [Example 3, 4-[7-fluoro-1-(pyrimidin-5-ylmethyl)benzimidazol-2-yl]-1,2,5-oxadiazol-3-amine]",< 50
8,"Cc1nonc1-c1nc2c(F)ccc(F)c2n1Cc1cnc(C#N)nc1 [Example 83, 5-[[4,7-difluoro-2-(4-methyl-1,2,5-oxadiazol-3-yl)benzimidazol-1-yl]methyl]pyrimidine-2-carbonitrile]",< 200
9,"CCc1nsnc1-c1nc2ccccc2n1Cc1cccnc1 [Example 105, 3-ethyl-4-[1-(pyridin-3-ylmethyl)benzimidazol-2-yl]-1,2,5-thiadiazole]",< 200
10,"CC(c1cccnc1)n1c(-c2nonc2N)nc2ccccc21 (racemic) [Example 85, rac-4-[1-[1-(pyridin-3-yl)ethyl]benzimidazol-2-yl]-1,2,5-oxadiazol-3-amine]",< 5000
11,"Nc1nonc1-c1nc2cc(F)cnc2n1Cc1cncnc1 [Example 12, 4-[6-fluoro-3-(pyrimidin-5-ylmethyl)imidazo[4,5-b]pyridin-2-yl]-1,2,5-oxadiazol-3-amine]",< 200
12,"Cc1ccc(Cn2c(-c3nonc3N)nc3c(F)cccc32)nn1 (single isomer, unassigned) [Example 169, 4-(4-fluoro-1-((6-methylpyridazin-3-yl)methyl)-benzimidazol-2-yl)-1,2,5-oxadiazol-3-amine]",< 200
13,"COc1cc(Cn2c(-c3nonc3C)nc3ccccc32)ccn1 [Example 66, 3-[1-[(2-methoxypyridin-4-yl)methyl]benzimidazol-2-yl]-4-methyl-1,2,5-oxadiazole]",< 200
14,"CNc1nsnc1-c1nc2c(F)cccc2n1Cc1cccnn1 [Example 144, 4-(4-fluoro-1-(pyridazin-3-ylmethyl)-benzimidazol-2-yl)-N-methyl-1,2,5-thiadiazol-3-amine]",< 1000
15,"Nc1nonc1-c1nc2ccccc2n1Cc1ccc(Br)nc1 [Example 88, 4-(1-((6-bromopyridin-3-yl)methyl)benzimidazol-2-yl)-1,2,5-oxadiazol-3-amine]",< 50
16,"Nc1conc1-c1nc2cccc(F)c2n1Cc1cccnn1 [Example 186, 3-(7-fluoro-1-(pyridazin-3-ylmethyl)-benzimidazol-2-yl)isoxazol-4-amine]",< 500
17,"N#Cc1ccc(Cn2c(-c3nonc3N)nc3cccnc32)cn1 [Example 51, 5-[[2-(4-amino-1,2,5-oxadiazol-3-yl)imidazo[4,5-b]pyridin-3-yl]methyl]pyridine-2-carbonitrile]",< 500
18,"Cc1nonc1-c1nc2cccnc2n1Cc1cccnn1 [Example 20, 3-methyl-4-[3-(pyridazin-3-ylmethyl)imidazo[4,5-b]pyridin-2-yl]-1,2,5-oxadiazole]",< 1000
